The source of these data is ChEMBL document CHEMBL6109138 (J Med Chem, 2025).

Each structure is given as a SMILES string. ≈ marks a conversion by molar mass, not a printed value.

For orientation: TGI means the concentration at which net growth stops. As a reminder, the GI50 is the concentration that inhibits growth by half. A higher GI50 goes with lower sensitivity of the cells. A word on the Ki: it is the equilibrium dissociation constant of an inhibitor or competing ligand from its target. Usually fraction unbound stands for the share of the substance not bound to proteins or other matrix. The term Papp A→B denotes the apparent permeability from the apical to the basolateral side of a cell layer. By Papp B→A is commonly meant how fast a substance crosses the layer from the basolateral side. Broadly, the half-life is the time in which the quantity being followed falls by half. A word on the LC50: it is the concentration that kills 50% of the test population.

The test system of data set [1] is T98G. Kind of data set: Antitumor activity against human T98G cells assessed as total growth inhibition incubated for 48 hrs by SRB assay. Type of data set: functional.
In data set [2] the test system is U-87 MG. As to the kind of experiment: Growth inhibition of human U-87 MG cells incubated for 48 hrs by SRB assay. The data set is classed as functional, U-87MG ATCC. For orientation: In SRB staining, fixed cells bind dye roughly in proportion to their protein.
Data set [3] deals with U-251. As to the kind of experiment: Growth inhibition of human U-251MG cells incubated for 48 hrs by SRB assay. Type of data set: functional.
The test system of data set [4] is T98G. Kind of data set: Growth inhibition of human T98G cells incubated for 48 hrs by SRB assay. Type of data set: functional.
In data set [5] the test system is U-251. As to the kind of experiment: Antitumor activity against human U-251MG cells assessed as total growth inhibition incubated for 48 hrs by SRB assay. Type of data set: functional.
Data set [6] deals with U-251. Kind of data set: Antitumor activity against human U-251MG cells assessed as lethal concentration incubated for 48 hrs by SRB assay. Type of data set: functional. To be noted: read-out: LC50 (the source's name).
The subject of data set [7] is U-87 MG. Kind of data set: Antitumor activity against human U-87 MG cells assessed as total growth inhibition incubated for 48 hrs by SRB assay. Type of data set: functional, U-87MG ATCC.
The target in a further data set is D(2) dopamine receptor (Homo sapiens, UniProt P14416). As to the kind of experiment: Displacement of [3H]N-methylspiperone from human D2L receptor extracted from HEK293 cell membrane assessed as inhibition constant incubated for 1 hrs by radioligand competitive binding based scintillation counter analysis. Type of data set: cell membranes. For orientation: Loss of bound radioactivity is the signal in a displacement assay; it reports binding, not function.

Data set [8] can be described thus: Kinetic solubility of compound pH 7.4. The data set is classed as physicochemical. The conditions noted are these: buffer, read-out: Kinetic_solubility.
The nature of data set [9]: Metabolic stability in human liver microsomes assessed as intrinsic clearance measured per mg protein. The data set is classed as ADME, Microsome. To be noted: read-out: CLH. Background: Microsomes from liver hold many membrane-bound enzymes, among them those of drug oxidation.
In data set [10] the test system is T98G. Kind of data set: Antitumor activity against human T98G cells assessed as lethal concentration incubated for 48 hrs by SRB assay. Type of data set: functional.
The nature of data set [11]: Protein binding in human plasma assessed as unbound fraction at 0.5 uM. The data set is classed as ADME, cell-free.
A short description of data set [12]: Apparent passive permeability across apical to basolateral side in MDCKII-MDR1 cells. The data set is classed as ADME, cell-based, Canis lupus familiaris. To be noted: dog, MDCK-MDR1.
Data set [13] can be described thus: Metabolic stability in mouse liver microsomes assessed as intrinsic clearance measured per mg protein. The data set is classed as ADME, Microsome. The conditions noted are these: read-out: CLH.
A short description of data set [14]: Apparent passive permeability across basolateral to apical side in MDCKII-MDR1 cells. To be noted: dog, MDCK-MDR1. The data set is classed as ADME, cell-based, Canis lupus familiaris.
Data set [15] can be described thus: Metabolic stability in human liver microsomes assessed as half-life. The data set is classed as ADME, Microsome.
The subject of data set [16] is U-87 MG. Kind of data set: Antitumor activity against human U-87 MG cells assessed as lethal concentration incubated for 48 hrs by SRB assay. The data set is classed as functional, U-87MG ATCC.
Data set [17] in a line: Metabolic stability in mouse liver microsomes assessed as intrinsic clearance measured per gram liver. The data set is classed as ADME, Microsome.
Data set [18] is described as follows: Metabolic stability in mouse liver microsomes assessed as half-life. Type of data set: ADME, Microsome.
Data set [19] is described as follows: Metabolic stability in human liver microsomes assessed as intrinsic clearance measured per gram liver. The data set is classed as ADME, Microsome.
Data set [20] in a line: Protein binding in mouse plasma assessed as unbound fraction at 0.5 uM. Type of data set: ADME, cell-free.
In data set [21] the target is T1, D(4) dopamine receptor (Homo sapiens) (UniProt P21917).
T1 sequence (whole entry): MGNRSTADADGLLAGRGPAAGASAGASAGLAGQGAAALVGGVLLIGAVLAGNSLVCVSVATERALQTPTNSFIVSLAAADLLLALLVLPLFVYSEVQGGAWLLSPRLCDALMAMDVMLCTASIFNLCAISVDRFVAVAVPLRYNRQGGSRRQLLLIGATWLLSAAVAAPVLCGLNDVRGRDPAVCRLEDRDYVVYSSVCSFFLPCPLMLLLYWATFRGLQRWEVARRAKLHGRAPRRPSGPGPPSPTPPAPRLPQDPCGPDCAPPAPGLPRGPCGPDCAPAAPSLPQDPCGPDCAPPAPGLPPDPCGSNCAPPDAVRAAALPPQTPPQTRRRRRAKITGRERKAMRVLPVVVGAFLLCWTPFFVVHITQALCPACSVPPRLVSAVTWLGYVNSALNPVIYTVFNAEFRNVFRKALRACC
Kind of data set: Partial agonist activity at D4 receptor (unknown origin) assessed as bias factor by beta-arrestin recruitment assay versus Gi activation assay. To be noted: filed as partial agonist. The data set is classed as functional.

The target of data set [22] is T1, D(4) dopamine receptor (Homo sapiens). Kind of data set: Partial agonist activity at D4 receptor (unknown origin) assessed as bias factor by Gi activation assay versus beta-arrestin recruitment assay. The data set is classed as functional. The conditions noted are these: filed as partial agonist.

Sequence of D(2) dopamine receptor (P14416 whole entry): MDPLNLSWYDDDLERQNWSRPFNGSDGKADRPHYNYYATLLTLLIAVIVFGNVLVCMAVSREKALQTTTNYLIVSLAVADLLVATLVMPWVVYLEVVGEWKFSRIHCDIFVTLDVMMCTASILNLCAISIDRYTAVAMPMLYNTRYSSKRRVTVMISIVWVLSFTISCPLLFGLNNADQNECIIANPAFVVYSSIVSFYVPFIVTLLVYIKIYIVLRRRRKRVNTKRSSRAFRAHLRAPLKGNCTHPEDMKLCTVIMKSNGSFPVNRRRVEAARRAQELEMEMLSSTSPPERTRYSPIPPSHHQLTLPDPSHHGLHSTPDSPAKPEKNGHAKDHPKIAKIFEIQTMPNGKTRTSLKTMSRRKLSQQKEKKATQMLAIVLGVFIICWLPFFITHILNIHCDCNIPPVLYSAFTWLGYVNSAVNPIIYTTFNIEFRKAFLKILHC

`Cn1nnc2c(C(N)=O)ncn2c1=O` [TEMOZOLOMIDE]: the TGI with T98G [1], in the data set with U-251 [5] and with U-87 MG [7] was over 200 µM each time. Moreover, the GI50 in the data set with U-87 MG [2], with U-251 [3] and with T98G [4] was over 200 µM throughout. Also, the CC50 in the data set with U-251 [6] was over 200 µM.
Regarding `O=C1CCc2ccccc2N1CCCN1CCN(C2CCCCC2)CC1`, the Ki on D(2) dopamine receptor is 25.1 µM.
On to `O=C1CCc2ccccc2N1CCCN1CCN(c2ccc3ccccc3c2)CC1`, for which the concentration for total growth inhibition (TGI) in the data set with T98G [1] came out at 42.1 µM; in the data set with U-251 [5] it was 63.2 µM; with U-87 MG [7], 55.2 µM. The GI50 was 25.7 µM in the data set with U-87 MG [2], 26.5 µM in the data set on U-251 [3] and 20 µM in the data set with T98G [4]. Further, the solubility kinetic in data set [8] was found to be 163 µM (≈ 65.1 µg/mL). The values for the microsomal CLint in [9] and in [13] were 73.8 µL/min/mg and 202 µL/min/mg, respectively. For the same molecule, the LC50 (lethal concentration 50%) in the data set with T98G [10] worked out at 96.7 µM. The fraction unbound at 0.5 µM in data set [11] was found to be 0.41; in data set [20] it was 0.71. Moreover, in [12], the Papp A→B came out at 1.77 ×10⁻⁶ cm/s. In data set [14], the Papp B→A turned out to be 2.06 ×10⁻⁶ cm/s. In addition, the half-life in data set [15] was 18.8 min; in data set [18], 6.86 min. Besides, in the data set with U-251 [6], the CC50 is 201 µM. Moreover, the Ki at D(2) dopamine receptor is 6.17 µM. Further, in the data set with U-87 MG [16], the LC50 turned out to be 118 µM. For the same molecule, the scaled CLint in data set [17] amounted to 9.09 mL/min/g; in data set [19], 2.95 mL/min/g.
`O=C1CCc2ccccc2N1CCCN1CCN(c2ccc(C(F)(F)F)cc2)CC1`: the Ki on D(2) dopamine receptor is 29.5 µM.
`O=C1CCc2ccccc2N1CCCN1CCN(c2ccc(F)cc2)CC1`: the Ki at D(2) dopamine receptor is 4.07 µM.
With `O=C1CCc2ccccc2N1CCCN1CCN(c2ccccc2-c2ccccc2)CC1`, the inhibitory constant (Ki) on D(2) dopamine receptor was 0.0759 µM.
`Cc1ccc2nc(CNCCCOc3ccccc3)cc(O)c2c1`: in [21], the Activity was found to be 7.4.
With `O=C1CCc2ccccc2N1CCCN1CCN(c2ccc(Br)cc2)CC1`, the inhibition constant Ki at D(2) dopamine receptor is 3.16 µM.
As for `CC(C)N1C[C@H](NC(=O)N2Cc3ccccc3[C@@H]2C)[C@@H](C)C1`, in [22], the Activity is 17.
As for `O=C1CCc2ccccc2N1CCCN1CCN(c2ccc(Cl)cc2)CC1`, the total growth inhibition concentration (TGI) in the data set on T98G [1] was 66.1 µM; with U-251 [5], 104 µM; in the data set on U-87 MG [7] it was 102 µM. Also, the GI50 with U-87 MG [2] amounted to 42.6 µM; in the data set with U-251 [3], 61.6 µM; in the data set on T98G [4] it was 21.9 µM. Besides, the LC50 (lethal concentration 50%) with T98G [10] worked out at 200 µM. Besides, the CC50 with U-251 [6] was 182 µM. Further, the median lethal concentration (LC50) with U-87 MG [16] stood at 245 µM.
For the molecule `O=C1CCc2ccccc2N1CCCN1CCN(c2cccc3ccccc23)CC1`, the TGI with T98G [1] stood at 32.1 µM; in the data set on U-251 [5], 36.6 µM; with U-87 MG [7], 39.5 µM. Moreover, the concentration for 50% growth inhibition (GI50) was 19.5 µM in the data set with U-87 MG [2], 22.6 µM in the data set on U-251 [3] and 12.2 µM with T98G [4]. Besides, the solubility kinetic in [8] stood at 112 µM (≈ 44.7 µg/mL). The microsomal CLint in data set [9] came out at 145 µL/min/mg; in [13], 288 µL/min/mg. The LC50 (lethal concentration 50%) in the data set with T98G [10] is 71 µM. In addition, the fraction unbound at 0.5 µM in [11] was 0.23; in [20], 0.48. Besides, in [12], the Papp A→B came to 1.84 ×10⁻⁶ cm/s. Besides, the Papp B→A in [14] came to 3.47 ×10⁻⁶ cm/s. The half-life came out at 9.58 min in [15] and 4.81 min in data set [18]. Further, the CC50 with U-251 [6] worked out at 78.7 µM. Also, the Ki on D(2) dopamine receptor was 0.0288 µM. In addition, the LC50 with U-87 MG [16] is 80 µM. In addition, the figures for the scaled CLint in [17] and in data set [19] were 13 mL/min/g and 5.78 mL/min/g, respectively.
For the molecule `COC(=O)c1ccc(N2CCN(CCCN3C(=O)CCc4ccccc43)CC2)cc1`, the Ki at D(2) dopamine receptor is 46.8 µM.
As for `O=C1CCc2ccccc2N1CCCN1CCN(c2ccc(I)cc2)CC1`, the Ki on D(2) dopamine receptor is 3.24 µM.
